US12590099B2, “Inhibitors of histone deacetylase useful for the treatment or prevention of HIV infection” (Merck Sharp & Dohme LLC, priority 2018, dated 2026)

Legend:
Assay type in all cases: biochemical
[1] = molecular target: T1, Recombinant human HDAC1 (Homo sapiens, UniProt Q13547); assay: Human HDAC enzyme inhibitor Fluor-de-Lys assay, HDAC1; conditions: recombinant human HDAC1, Fluor-de-Lys assay
T1 construct: FLAG (C); made in house
How it was run: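 Fluor-de-Lys format at room temperature (23° C.): compounds titrated 10-point, 1:3, preincubated with HDAC before substrate addition; HDAC1 run at 0.3 nM enzyme with 20 μM BML-KI104. Developer with excess HDAC inhibitor ends the reaction, and trypsin-liberated AMC fluorescence is the read-out.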

[2] = molecular target: T2, Recombinant human HDAC2 (Homo sapiens, UniProt Q92769); assay: Human HDAC enzyme inhibitor Fluor-de-Lys assay, HDAC2; conditions: recombinant human HDAC2, Fluor-de-Lys assay
T2 construct: Full length human HDAC2-FLAG was expressed in baculovirus infected Sf9 cells; FLAG (C); made in house; host or cells: Sf9 (baculovirus)
How it was run: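 Fluor-de-Lys format at room temperature (23° C.): compounds titrated 10-point, 1:3, preincubated with HDAC before substrate addition. Developer with excess HDAC inhibitor ends the reaction, and trypsin-liberated AMC fluorescence is the read-out.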

[3] = molecular target: T3, Recombinant human HDAC3/SMRT heterodimer (Homo sapiens, UniProt O15379); assay: Human HDAC enzyme inhibitor Fluor-de-Lys assay, HDAC3/SMRT; conditions: recombinant human HDAC3/SMRT, Fluor-de-Lys assay
T3 construct: FLAG (C); made in house

[4] = molecular target: T4, HDAC6 (Homo sapiens, UniProt Q9UBN7); assay: Human HDAC enzyme inhibitor Fluor-de-Lys assay, HDAC6; conditions: HDAC6, Fluor-de-Lys assay
T4 sequence (Q9UBN7 1-1215): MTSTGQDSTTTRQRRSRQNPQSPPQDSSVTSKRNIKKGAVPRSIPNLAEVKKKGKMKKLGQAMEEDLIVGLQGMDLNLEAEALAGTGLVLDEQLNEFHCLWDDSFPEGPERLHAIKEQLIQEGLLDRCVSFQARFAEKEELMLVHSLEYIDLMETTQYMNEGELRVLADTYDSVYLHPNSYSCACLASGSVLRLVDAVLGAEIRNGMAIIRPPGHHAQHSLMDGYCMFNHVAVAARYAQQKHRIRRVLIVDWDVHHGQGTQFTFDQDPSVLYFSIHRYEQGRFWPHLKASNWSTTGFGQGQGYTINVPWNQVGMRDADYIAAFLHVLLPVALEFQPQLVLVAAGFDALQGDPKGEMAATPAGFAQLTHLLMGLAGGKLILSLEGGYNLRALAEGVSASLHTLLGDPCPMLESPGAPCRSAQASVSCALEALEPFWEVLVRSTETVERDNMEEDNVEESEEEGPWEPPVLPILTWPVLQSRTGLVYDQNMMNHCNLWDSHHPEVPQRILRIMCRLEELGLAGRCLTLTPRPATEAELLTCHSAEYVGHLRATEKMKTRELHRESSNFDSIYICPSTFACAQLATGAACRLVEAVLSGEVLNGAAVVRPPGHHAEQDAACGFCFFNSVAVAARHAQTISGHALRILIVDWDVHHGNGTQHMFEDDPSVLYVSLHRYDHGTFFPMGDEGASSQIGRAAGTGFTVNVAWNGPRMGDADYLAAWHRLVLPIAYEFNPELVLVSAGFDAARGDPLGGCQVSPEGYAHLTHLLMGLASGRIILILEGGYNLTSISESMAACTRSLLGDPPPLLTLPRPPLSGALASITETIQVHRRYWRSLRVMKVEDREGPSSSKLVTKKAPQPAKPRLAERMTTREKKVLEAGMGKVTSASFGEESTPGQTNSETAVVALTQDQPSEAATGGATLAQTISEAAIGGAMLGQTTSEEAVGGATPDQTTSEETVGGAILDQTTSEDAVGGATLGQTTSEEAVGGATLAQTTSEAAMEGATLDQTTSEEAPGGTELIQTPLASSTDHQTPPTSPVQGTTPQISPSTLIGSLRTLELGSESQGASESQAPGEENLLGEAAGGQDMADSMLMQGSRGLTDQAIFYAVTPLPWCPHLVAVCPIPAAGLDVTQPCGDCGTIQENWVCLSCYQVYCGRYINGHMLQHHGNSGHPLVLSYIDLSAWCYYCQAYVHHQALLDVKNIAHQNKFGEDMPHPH

T1 sequence (Q13547 whole entry): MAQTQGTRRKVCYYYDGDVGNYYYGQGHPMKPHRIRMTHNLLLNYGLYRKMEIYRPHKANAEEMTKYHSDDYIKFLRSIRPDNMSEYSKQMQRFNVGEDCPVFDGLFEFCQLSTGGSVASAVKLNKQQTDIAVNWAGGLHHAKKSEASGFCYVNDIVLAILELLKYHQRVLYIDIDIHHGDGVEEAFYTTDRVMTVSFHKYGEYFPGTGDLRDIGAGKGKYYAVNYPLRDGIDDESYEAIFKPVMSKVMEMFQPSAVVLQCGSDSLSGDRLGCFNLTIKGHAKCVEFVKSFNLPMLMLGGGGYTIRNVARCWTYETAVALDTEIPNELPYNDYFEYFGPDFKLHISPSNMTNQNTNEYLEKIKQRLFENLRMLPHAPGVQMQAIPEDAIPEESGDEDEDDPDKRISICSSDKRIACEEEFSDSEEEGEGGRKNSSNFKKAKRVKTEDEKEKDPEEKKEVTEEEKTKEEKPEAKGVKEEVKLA
T3 sequence (O15379 whole entry): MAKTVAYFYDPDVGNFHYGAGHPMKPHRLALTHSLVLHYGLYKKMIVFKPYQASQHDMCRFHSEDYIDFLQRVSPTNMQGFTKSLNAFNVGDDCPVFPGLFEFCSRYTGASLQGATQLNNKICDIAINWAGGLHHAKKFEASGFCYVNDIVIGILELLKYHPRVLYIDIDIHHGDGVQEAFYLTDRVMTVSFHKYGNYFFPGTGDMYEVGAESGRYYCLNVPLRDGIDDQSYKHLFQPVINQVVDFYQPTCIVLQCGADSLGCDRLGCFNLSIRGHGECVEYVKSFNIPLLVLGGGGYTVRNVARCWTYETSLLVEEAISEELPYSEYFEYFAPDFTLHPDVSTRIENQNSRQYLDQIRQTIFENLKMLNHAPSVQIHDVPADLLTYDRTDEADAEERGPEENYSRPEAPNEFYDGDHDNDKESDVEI
T3 sequence (Q9Y618 1-899 partner limits assumed): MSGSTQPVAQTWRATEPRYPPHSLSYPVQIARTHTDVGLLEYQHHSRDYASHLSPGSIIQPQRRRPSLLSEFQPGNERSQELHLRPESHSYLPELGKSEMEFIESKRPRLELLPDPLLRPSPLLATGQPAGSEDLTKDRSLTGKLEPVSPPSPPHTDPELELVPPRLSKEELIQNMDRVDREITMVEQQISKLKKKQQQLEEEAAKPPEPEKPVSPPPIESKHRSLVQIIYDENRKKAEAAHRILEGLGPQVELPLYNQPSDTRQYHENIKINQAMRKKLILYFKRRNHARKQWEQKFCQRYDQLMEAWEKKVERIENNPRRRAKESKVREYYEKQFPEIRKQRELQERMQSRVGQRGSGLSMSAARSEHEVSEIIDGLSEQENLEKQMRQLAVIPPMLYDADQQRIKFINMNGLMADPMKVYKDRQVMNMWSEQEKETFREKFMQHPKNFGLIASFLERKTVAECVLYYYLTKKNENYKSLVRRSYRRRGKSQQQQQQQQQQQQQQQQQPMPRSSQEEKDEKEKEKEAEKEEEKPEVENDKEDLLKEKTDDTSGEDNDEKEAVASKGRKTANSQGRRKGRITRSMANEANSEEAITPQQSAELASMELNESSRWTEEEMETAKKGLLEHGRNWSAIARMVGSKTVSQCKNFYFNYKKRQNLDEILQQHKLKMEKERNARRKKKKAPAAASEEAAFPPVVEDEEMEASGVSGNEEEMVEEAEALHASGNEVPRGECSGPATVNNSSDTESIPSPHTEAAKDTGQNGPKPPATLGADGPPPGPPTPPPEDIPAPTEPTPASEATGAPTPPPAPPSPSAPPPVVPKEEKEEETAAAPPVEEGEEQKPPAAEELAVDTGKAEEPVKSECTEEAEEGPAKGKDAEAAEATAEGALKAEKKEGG
T2 sequence (Q92769 whole entry): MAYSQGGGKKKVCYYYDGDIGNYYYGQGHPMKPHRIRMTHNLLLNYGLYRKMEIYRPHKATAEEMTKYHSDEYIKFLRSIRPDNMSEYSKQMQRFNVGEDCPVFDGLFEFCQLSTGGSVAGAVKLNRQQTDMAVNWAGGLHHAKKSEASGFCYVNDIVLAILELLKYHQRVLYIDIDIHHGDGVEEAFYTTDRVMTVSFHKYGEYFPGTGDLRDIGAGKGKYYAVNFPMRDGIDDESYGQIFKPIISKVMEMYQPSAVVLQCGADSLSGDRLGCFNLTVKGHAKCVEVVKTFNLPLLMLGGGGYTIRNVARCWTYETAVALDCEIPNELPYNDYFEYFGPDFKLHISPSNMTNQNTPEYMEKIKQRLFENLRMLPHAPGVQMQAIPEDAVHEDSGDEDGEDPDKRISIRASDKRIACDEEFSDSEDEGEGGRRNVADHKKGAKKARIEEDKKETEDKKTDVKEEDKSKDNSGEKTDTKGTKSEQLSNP

SMILES	IC50 [1]	IC50 [2]	IC50 [3]	IC50 [4]
CCC(=O)CCCCC[C@H](NC(=O)[C@H]1CC[C@]2(CC1)OC(=O)c1cccnc12)c1ncc(-c2ccccc2)[nH]1 [Compound 378]	46 nM	220 nM	7.08 nM	10800 nM
CCC(=O)CCCCC[C@H](NC(=O)C1=NOC2(CCN(C(C)C)CC2)C1)c1ncc(-c2ccccc2)[nH]1 [Compound 379]	21.9 nM	100 nM	4.77 nM	8590 nM
CCC(=O)CCCCC[C@H](NC(=O)C1=NOC2(CCN(C(C)=O)CC2)C1)c1ncc(-c2ccccc2)[nH]1 [Compound 380]	69.8 nM	326 nM	8.92 nM	16200 nM
CCC(=O)CCCCC[C@H](NC(=O)C1=NOC2(CCN(C(=O)OC)CC2)C1)c1ncc(-c2ccccc2)[nH]1 [Compound 381]	179 nM	637 nM	26.1 nM	32300 nM
CCC(=O)CCCCC[C@H](NC(=O)C1=NOC2(CCN(C)CC2)C1)c1ncc(-c2ccccc2)[nH]1 [Compound 382]	32.9 nM	146 nM	8.02 nM	12100 nM
CCC(=O)CCCCC[C@H](NC(=O)C1=NOC2(CCN(S(C)(=O)=O)CC2)C1)c1ncc(-c2ccccc2)[nH]1 [Compound 383]	96.5 nM	427 nM	16.7 nM	16100 nM
CCC(=O)CCCCC[C@H](NC(=O)CCN1C(=O)C(CC)=NC12CCOCC2)c1ncc(-c2ccccc2)[nH]1 [Compound 384]	37.3 nM	154 nM	12.6 nM	10300 nM
CCC(=O)CCCCC[C@H](NC(=O)C1=NOC2(CCN(C)CC2)C1)c1ncc(-c2cc3ccc(=O)n(C)c3cc2F)o1 [Compound 386]	7.82 nM	54.7 nM	12.4 nM	> 900 nM
CCC(=O)CCCCC[C@H](NC(=O)C1=NOC2(CCN(CC3CC3)CC2)C1)c1ncc(-c2cc3ccc(=O)n(C)c3cc2F)o1 [Compound 387]	25.8 nM	207 nM	48.1 nM	> 900 nM
CCC(=O)CCCCC[C@H](NC(=O)[C@H]1CC12CCN(C)CC2)c1ncc(-c2cc3ocnc3cc2F)o1 [Compound 389]	21.4 nM	98.3 nM	30.2 nM	> 900 nM
CCC(=O)CCCCC[C@H](NC(=O)C1=NOC2(CCN(C)CC2)C1)c1ncc(-c2ccc(Cl)cc2OC)o1 [Compound 390]	18 nM	159 nM	39.4 nM	309 nM
CCC(=O)CCCCC[C@H](NC(=O)C1=NOC2(CCN(C)CC2)C1)c1ncc(-c2ccc(-c3ccccn3)cc2OC)o1 [Compound 391]	9.57 nM	74.5 nM	18.6 nM	> 900 nM
CCC(=O)CCCCC[C@H](NC(=O)[C@H]1CC12CCN(CC1CC1)CC2)c1ncc(-c2ccc3nc(C)ccc3c2)[nH]1 [Compound 393]	0.05 nM	0.1 nM	0.05 nM	325 nM
CCC(=O)CCCCC[C@H](NC(=O)C1=NOC2(CCN(C)CC2)C1)c1ncc(-c2ccc(-c3ccncc3)cc2OC)o1 [Compound 395]	2.42 nM	36.3 nM	6.78 nM	> 900 nM
CCC(=O)CCCCC[C@H](NC(=O)C1=NOC2(CCN(C)CC2)C1)c1ncc(-c2cc3ccc(N(C)C)nc3cc2OC)o1 [Compound 397]	1.36 nM	6.6 nM	2.66 nM	> 900 nM
CCC(=O)CCCCC[C@H](NC(=O)[C@H]1CC12CCN(CC1CC1)CC2)c1ncc(-c2cc3ccc(=O)n(C)c3cc2F)o1 [Compound 400]	6.41 nM	39.7 nM		> 900 nM
